Experimental data reported in PubChem BioAssay (NCI).
In brackets after ≈: the same amount, converted by molar mass.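 Assay format: 96-well plates, 48-hour exposure. GI50 = concentration required for 50% inhibition of growth. TGI is the concentration that stops growth completely.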

Experiments:
Assay in all cases: inhibition of tumour cell growth, NCI panel, 48 h
HT29 colon = tested on: HT29 colon
EKVX NSCLC = tested on: EKVX NSCLC
TK-10 renal = tested on: TK-10 renal
LOX IMVI melanoma = tested on: LOX IMVI melanoma
SK-MEL-28 melanoma = tested on: SK-MEL-28 melanoma
MALME-3M melanoma = tested on: MALME-3M melanoma
RXF 393 renal = tested on: RXF 393 renal
CAKI-1 renal = tested on: CAKI-1 renal
A549 NSCLC = tested on: A549 NSCLC
M14 melanoma = tested on: M14 melanoma

Row | Compound | GI50 (HT29 colon) [µg/mL] | TGI (HT29 colon) | GI50 (EKVX NSCLC) [µg/mL] | TGI (EKVX NSCLC) | GI50 (TK-10 renal) [µg/mL] | TGI (TK-10 renal) | GI50 (LOX IMVI melanoma) [µg/mL] | TGI (LOX IMVI melanoma) | GI50 (SK-MEL-28 melanoma) [µg/mL] | TGI (SK-MEL-28 melanoma) | GI50 (MALME-3M melanoma) [µg/mL] | TGI (MALME-3M melanoma) | GI50 (RXF 393 renal) [µg/mL] | TGI (RXF 393 renal) | GI50 (CAKI-1 renal) [µg/mL] | TGI (CAKI-1 renal) | GI50 (A549 NSCLC) [µg/mL] | TGI (A549 NSCLC) | GI50 (M14 melanoma) [µg/mL] | TGI (M14 melanoma)
1 | O=C1NN(C2=NNC3(C(=O)N2)c2ccccc2-c2ccccc23)C(c2ccccc2)=N/C1=C/c1ccc(O)cc1 | > 150 | > 150 µg/mL | 47.4 (≈ 90 µM) | > 150 µg/mL | 39.1 (≈ 74.2 µM) | 71.9 µg/mL | 32.2 (≈ 61.2 µM) | 71.3 µg/mL | 83 (≈ 158 µM) | > 150 µg/mL | 15 (≈ 28.5 µM) | 15 µg/mL | 97 (≈ 184 µM) | > 150 µg/mL | 64.2 (≈ 122 µM) | > 150 µg/mL | 74.7 (≈ 142 µM) | > 150 µg/mL | 57.6 (≈ 109 µM) | > 150 µg/mL
2 | O=C(N/N=C\c1cccc(O)c1)c1ccncc1 | – | > 100 µM | – | > 100 µM | – | > 100 µM | – | > 100 µM | – | > 100 µM | – | > 100 µM | – | > 100 µM | – | > 100 µM | – | > 100 µM | – | > 100 µM
3 | Cc1nc2ccccc2n1C(=O)c1c(F)c(F)c(F)c(F)c1F | – | 27.5 µM | – | > 100 µM | – | 66.3 µM | – | 25.1 µM | – | 82.9 µM | – | 57.5 µM | – | 33.5 µM | – | 48.9 µM | – | > 100 µM | – | 25.9 µM
4 | C=CC1(C)CCC2=C(CCC3C(C)(C(=O)OC)CCCC23C)C1=O (configuration not stated) | – | 31.2 µM | – | 32.8 µM | – | 56.4 µM | – | 34.3 µM | – | – | – | 32.8 µM | – | – | – | 87.1 µM | – | – | – | 38.7 µM
5 | Cn1c(=O)c2[nH]c(CCCCC(=O)O)nc2n(C)c1=O | – | > 100 µM | – | > 100 µM | – | > 100 µM | – | > 100 µM | – | > 100 µM | – | > 100 µM | – | > 100 µM | – | > 100 µM | – | > 100 µM | – | > 100 µM
